Data on 79 compounds can be found in the METLIN SMRT retention time set (Domingo-Almenara et al. 2019).

The series can be described thus: gradient 5% acetonitrile 3 min, to 50% in 2 min, to 85% in 15 min, held 3 min, 100 µL/min. Particulars: column: Zorbax Extend-C18 2.1 x 50 mm; eluents: water / acetonitrile, 0.1% formic acid. In a few lines:
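Pure standards were run in mixtures of ~100 molecules by HPLC coupled to a quadrupole time-of-flight mass spectrometer. The column was a Zorbax Extend-C18 (2.1 × 50 mm, 1.8 μm) at 100 μL/min, with water and acetonitrile each containing 0.1% formic acid, in positive and negative ionization mode. Dead and dwell volumes were 40 μL and 900 μL. Retention time was taken from computationally picked adduct peaks, each manually inspected, with data collected over 3 months.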
The compound `COc1ccc(C(=O)N2CCC[C@H]2c2nc(-c3ccccc3)n[nH]2)cn1` yielded an RP-LC retention time of 659 s.
Compound `O=C1CC(C(F)(F)F)c2c(c(C(=O)O)cn2-c2ccccc2Cl)N1` (centres undefined) had an RP-LC retention time of 737 s.
In turn, `Cc1ccc(-c2ccc(-n3nc(C)c(S(=O)(=O)Nc4ccc5c(c4)OCCO5)c3C)nn2)cc1C` showed an RP-LC retention time of 1100 s.
Compound `CCOCC(=O)N1CCC2(CC1)C(=O)N(C)c1ccccc12` came in with an RP-LC retention time of 694 s.
`CCCCS(=O)(=O)Nc1ccc2c(c1)nc(-c1ccc(C(=O)NCCC)cc1)n2C` came in with an RP-LC retention time of 660 s.
Then `O=S(=O)(c1ccc(-c2noc(-c3cccc(Cl)c3)n2)cc1)N1CCCC1`, with 1260 s; and `O=C(Nc1ccc(-c2nc(-c3cccc(Br)c3)co2)cc1)c1ccco1`, with 1150 s.
The result for `CC(NC(=O)C1CCCN(c2cnc3nccnc3c2)C1)c1cccnc1` (centres undefined) reads 598 s.
`CCc1nn(C)c(=O)c2cc(S(=O)(=O)NCc3ccc(F)c(Cl)c3)cn12`: the RP-LC retention time came to 933 s.
`Cc1ncc([N+](=O)[O-])n1CCOC(=O)c1ccc(F)cc1` showed an RP-LC retention time of 732 s.
`CCC1CCCCN1CCCNC(=O)C1CCN(c2ncnc3onc(C)c23)CC1` (centres undefined) returned an RP-LC retention time of 579 s.
`O=C(c1ccc(Cl)cc1Cl)N1CCN(c2cc(-c3cccs3)[nH]n2)CC1` returned an RP-LC retention time of 888 s.
On to `COc1cc(Cl)ccc1C(=O)N1CCC(OC2CCN(C)CC2)CC1`, for which the RP-LC retention time amounted to 606 s.
Then `CCSCCOC(=O)C1=C(C)NC2=C(C(=O)CC(C)(C)C2)C1c1ccccn1` (centres undefined), with 648 s; and `Cc1ccc(NC(=O)Cn2nc3c(N4CC(C)CC(C)C4)nccn3c2=O)cc1` (centres undefined), with 884 s.
The result for `O=C(c1ccc(Cl)s1)N1CCCCC1c1nncn1CC1CC1` (centres undefined) reads 800 s.
Compound `COc1ccc(OC)c(NC(=O)C2CCCN(c3cnc4nccnc4c3)C2)c1` (centres undefined) gave an RP-LC retention time of 730 s.
Then `Cc1c(-c2ccccc2)nc2ccccc2c1C(=O)N1CCN(c2ncccn2)CC1`, with 636 s; and `O=C1NCC/C1=C\c1ccc(C(F)(F)F)cc1`, with 718 s; and `Cc1ccc(Cl)cc1N1CCN(C(=O)c2[nH]c(C)c(S(=O)(=O)N3CCC(C)CC3)c2C)CC1`, with 1190 s.
With `CCn1c(C)nc2c1CN(CC(=O)NCCCN1CCCc3ccccc31)CC2`, the RP-LC retention time was determined as 594 s.
Compound `COc1cc(Cl)c(NC(=O)C2CCN(C(=O)C3Sc4ccccc4NC3=O)CC2)c(OC)c1` (centres undefined) had an RP-LC retention time of 795 s.
Compound `O=C(c1ccccc1Br)N1CCCN(C(=O)C2CC2)c2ccccc21` had an RP-LC retention time of 746 s.
In turn, `CCOC(=O)N1CCN(c2nc(F)c(F)c(S(=O)(=O)CCNc3ccccc3)c2F)CC1` gave an RP-LC retention time of 1010 s.
Then `O=C(C1CCN(c2cnc(N3CCCCC3)nc2)CC1)N1CCOCC1`, with 599 s; and `CCOc1ccc(S(=O)(=O)N2CCCC(C(=O)NCc3ccccn3)C2)cc1` (centres undefined), with 623 s.
Consider `Cc1ccc(-c2cn3c(CC(=O)NCCC4=CCCCC4)csc3n2)cc1C`, for which the RP-LC retention time stood at 942 s.
Compound `Fc1ccc(-c2csc(Cc3nc(-c4cccc(Cl)c4)no3)n2)cc1` came in with an RP-LC retention time of 1310 s.
As for `Cc1ccc2c(c1)N(C)N=C(C(=O)N1CCCCCC1)S2(=O)=O`, the RP-LC retention time was 839 s.
On to `Cn1cc(CCN2CCN(C(=O)c3ccccc3Br)CC2)c2cccnc21`, for which the RP-LC retention time amounted to 598 s.
The result for `Brc1ccc(-c2noc(Cc3nc(-c4ccc5c(c4)OCO5)cs3)n2)cc1` reads 1270 s.
`COc1cc2c(cc1OC)C(C(=O)NCCCN1CCN(C)CC1)C(c1cccs1)N(C)C2=O` (centres undefined) came in with an RP-LC retention time of 572 s.
The compound `COC1C(=O)N(CC2CC2)C12CCN(C(=O)C1CCOCC1)CC2` (centres undefined) had an RP-LC retention time of 638 s.
`O=C(Cn1ccn2nc(-c3ccc(F)cc3)c(CO)c2c1=O)Nc1ccc(Cl)cc1F`: the RP-LC retention time amounted to 909 s.
Compound `COc1ccc(Cn2nc3c(S(=O)(=O)N4CCc5ccccc5C4)cccn3c2=O)cc1` came in with an RP-LC retention time of 946 s.
The result for `CCN1CCCn2cc(S(=O)(=O)Nc3ccc(OC)c(Cl)c3)cc2C1=O` reads 740 s; that for `Cc1ccc(Nc2c(-c3ccc(N(C)C)cc3)nc3ccc(C)cn23)cc1`, 839 s; that for `CCCn1cc(CCNS(=O)(=O)c2cccc(Cl)c2C)c2cccnc21`, 914 s.
For `Cc1ccc(NC(=O)Cn2nc(N(C)C)c3ccccc3c2=O)c(C)c1`, the RP-LC retention time came to 869 s.
Consider `COc1ccc(C(=O)N2CCCC2c2nc(-c3ccc(OC)c(OC)c3)no2)cc1F` (centres undefined), for which the RP-LC retention time was found to be 876 s.
Then `O=C(NCCc1cccs1)C1CCN(Cc2cc3ccccc3n2Cc2ccc(Cl)cc2)CC1`, with 846 s; and `Cc1ccc(CNC(=O)C2CCN(S(=O)(=O)c3cn(C(C)C)cn3)CC2)cc1`, with 745 s.
With `Cc1nnc(SCC(=O)N2CCOCC2)s1`, the RP-LC retention time amounted to 560 s.
Turning to `O=C(Nc1ccccc1)C1CCc2sc(C(=O)N3CCOCC3)cc2C1` (centres undefined), the RP-LC retention time was determined as 708 s.
`COc1ccc(-n2cc(-c3nc(-c4ccccn4)no3)c3ccccc3c2=O)cc1OC`: the RP-LC retention time amounted to 821 s.
As to `Cc1ccc(-c2cn3c(CC(=O)Nc4ccc(Cl)cc4F)csc3n2)cc1C`, the RP-LC retention time is 966 s.
Take `CN1CCN(C(CNC(=O)c2ccc3nsnc3c2)c2ccc(F)cc2)CC1` (centres undefined): the RP-LC retention time came to 567 s.
For the compound `CN(C)C(=O)c1cc(N(C)C)nc2ccc(F)cc12`, the RP-LC retention time worked out at 575 s.
The result for `Cc1nn(CCCC(=O)N2CCN(c3ccccn3)CC2)c(=O)c2cc3occc3n12` reads 589 s; that for `CCC1CCCCN1CCCNC(=O)CCc1cc2cc(OC)ccc2[nH]c1=O` (centres undefined), 596 s.
Regarding `CCc1ccccc1NC(=O)N1CCC2(CC1)NC(=O)c1ccccc1N2C`, the RP-LC retention time came out at 731 s.
`Cc1ccc(N2C(=O)N(Cc3ccccc3)S(=O)(=O)c3cccnc32)cc1` yielded an RP-LC retention time of 1060 s.
Then `Cc1cc(C)cc(S(=O)(=O)N2CCCN(c3ccc(=O)n(-c4ccccc4)n3)CC2)c1`, with 901 s; and `COc1cccc(CNC2=NCCNC23CCN(S(=O)(=O)c2ccc(C)cc2C)CC3)c1`, with 747 s.
Compound `CC(C)Cc1nc(-c2ccccc2)oc1CC(=O)NCc1cccc(Cl)c1` came in with an RP-LC retention time of 1090 s.
In turn, `O=C(CCC(=O)OCC(=O)c1ccccc1)Nc1ccc2ccccc2c1` displayed an RP-LC retention time of 891 s.
Then `Clc1cccc(-c2nc(-c3ccc4nncn4c3)no2)c1`, with 921 s; and `CCc1ccc(NC(=O)Cc2c(C)nn(-c3nc(-c4ccc(C)cc4)cs3)c2C)cc1`, with 1320 s; and `Fc1ccc(-c2noc(-c3ccc(NCC4CCCO4)nc3)n2)cc1` (centres undefined), with 940 s.
Turning to `Cc1ccc(Cl)cc1NS(=O)(=O)c1ccc2onc(C(=O)N3CCCC3)c2c1`, the RP-LC retention time was 1030 s.
Regarding `CCC(=O)N1CCc2cc(N3CC(C(=O)NC4CCCC4)CC3=O)ccc21` (centres undefined), the RP-LC retention time was 686 s.
`COc1ccc(CCN2CCC(CNS(=O)(=O)c3ccc4c(c3)CCCC(=O)N4)CC2)cc1` yielded an RP-LC retention time of 628 s.
`CC(Oc1ccccc1)C(=O)N1CC(n2ccnc2)C1` (centres undefined) yielded an RP-LC retention time of 584 s.
As for `Cc1ccc(S(=O)(=O)N2C(=O)CCC2C(=O)Nc2ccc(C)c(C)c2)cc1` (centres undefined), the RP-LC retention time came to 973 s.
For `COc1cccc(N2CCN(C(=O)C3CC(=O)N(c4n[nH]c5cccc(F)c45)C3)CC2)c1` (centres undefined), the RP-LC retention time is 742 s.
Compound `Cc1ccn2cc(-c3ccc(C)c(NS(=O)(=O)c4ccccc4)c3)nc2c1` registered an RP-LC retention time of 655 s.
`CCOc1ccc(CCNC(=O)C2CCCN(c3nccc(C)n3)C2)cc1OCC` (centres undefined) yielded an RP-LC retention time of 767 s.
In the case of `COc1cc(NC(=O)CN2CC(C)Sc3ccccc32)cc(OC)c1` (centres undefined), the RP-LC retention time was found to be 971 s.
As to `COc1ccc(-c2noc(Cn3ccn(-c4ccccc4)c(=O)c3=O)n2)cc1`, the RP-LC retention time turned out to be 794 s.
Consider `Cc1cc(C)c(S(=O)(=O)N2CCCC2c2nc(-c3ccc(F)cc3)no2)cc1C` (centres undefined), for which the RP-LC retention time was 1270 s.
Then `COc1ccc(NC(=O)N2CCC3(C2)C(=O)Nc2ccccc23)cc1` (centres undefined), with 702 s; and `COCc1nncn1C1CCN(S(=O)(=O)c2ccc(C)cc2C)CC1`, with 743 s.
The result for `Cc1ccc(-c2nc(Cn3nnc(C(=O)NCc4ccco4)c3C)c(C)o2)cc1` reads 1000 s; that for `CCCC(=O)Nc1sccc1C(N)=O`, 625 s; that for `COc1ccc(N(Cc2nnc3n2CCCCC3)C(=O)Nc2ccccc2)cc1OC`, 692 s.
`CC(C)NC(=O)C1CCN(c2nc3ccc(-c4ccccc4)nc3s2)CC1` displayed an RP-LC retention time of 927 s.
Then `CCc1ccc(C2=Nc3cccnc3N(CC(=O)Nc3ccc4c(c3)OCCO4)C(=O)C2)cc1`, with 1020 s.
`Cc1ccc(C)c(N2CCN(C(=O)c3ccc4c(c3)N(C)C(=O)C3CCCCN43)CC2)c1` (centres undefined): the RP-LC retention time came out at 1180 s.
In the case of `Cc1ccc(Nc2nc(C(=O)NC3CCCC3)nc3ccccc23)cc1`, the RP-LC retention time amounted to 853 s.
